How the values were obtained:
Assay in all cases: relative viability (nuclei count vs DMSO), 5 days (fraction); higher = more cells survive
Ruxolitinib + Foretinib = compound: N#CC[C@H](C1CCCC1)n1cc(-c2ncnc3[nH]ccc23)cn1 [Ruxolitinib] + COc1cc2c(Oc3ccc(NC(=O)C4(C(=O)Nc5ccc(F)cc5)CC4)cc3F)ccnc2cc1OCCCN1CCOCC1 [Foretinib] (partner 0.25 µM)
Summary of the method: (§1)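 A single step with final 0.05% Triton X-100, 1% formaldehyde and 1 ug/ml Hoechst fixed the cells and stained nuclei 5 days after treatment. Lung cancer cell lines in 1536-well plates had been treated by pin tool the day after seeding with one drug alone or a fixed anchor-drug dose plus five library-drug doses (not always all listed) in √10 steps, and nuclei were counted on 4× images. Relative viability is the ratio of nuclei in treated wells to nuclei in vehicle wells, taken as the median of duplicate plates.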

Ruxolitinib + Lapatinib = compound: N#CC[C@H](C1CCCC1)n1cc(-c2ncnc3[nH]ccc23)cn1 [Ruxolitinib] + CS(=O)(=O)CCNCc1ccc(-c2ccc3ncnc(Nc4ccc(OCc5cccc(F)c5)c(Cl)c4)c3c2)o1 [Lapatinib] (partner 2 µM)
Summary of the method: as §1

Ruxolitinib + Crizotinib = compound: N#CC[C@H](C1CCCC1)n1cc(-c2ncnc3[nH]ccc23)cn1 [Ruxolitinib] + C[C@@H](Oc1cc(-c2cnn(C3CCNCC3)c2)cnc1N)c1c(Cl)ccc(F)c1Cl [Crizotinib] (partner 1 µM)
Summary of the method: as §1

Vismodegib + Bortezomib = compound: CS(=O)(=O)c1ccc(C(=O)Nc2ccc(Cl)c(-c3ccccn3)c2)c(Cl)c1 [Vismodegib] + CC(C)C[C@H](NC(=O)[C@H](Cc1ccccc1)NC(=O)c1cnccn1)B(O)O [Bortezomib] (partner 0.002 µM)
Summary of the method: as §1

Cell Line	relative viability (Ruxolitinib + Foretinib; first compound 0.08 µM)	relative viability (Ruxolitinib + Foretinib; first compound 0.253 µM)	relative viability (Ruxolitinib + Foretinib; first compound 0.8 µM)	relative viability (Ruxolitinib + Foretinib; first compound 2.53 µM)	relative viability (Ruxolitinib + Foretinib; first compound 8 µM)	relative viability (Ruxolitinib + Lapatinib; first compound 0.08 µM)	relative viability (Ruxolitinib + Lapatinib; first compound 0.253 µM)	relative viability (Ruxolitinib + Lapatinib; first compound 0.8 µM)	relative viability (Ruxolitinib + Lapatinib; first compound 2.53 µM)	relative viability (Ruxolitinib + Lapatinib; first compound 8 µM)	relative viability (Ruxolitinib + Crizotinib; first compound 0.08 µM)	relative viability (Ruxolitinib + Crizotinib; first compound 0.253 µM)	relative viability (Ruxolitinib + Crizotinib; first compound 0.8 µM)	relative viability (Ruxolitinib + Crizotinib; first compound 2.53 µM)	relative viability (Ruxolitinib + Crizotinib; first compound 8 µM)	relative viability (Vismodegib + Bortezomib; first compound 0.08 µM)	relative viability (Vismodegib + Bortezomib; first compound 0.253 µM)	relative viability (Vismodegib + Bortezomib; first compound 0.8 µM)	relative viability (Vismodegib + Bortezomib; first compound 2.53 µM)	relative viability (Vismodegib + Bortezomib; first compound 8 µM)
HARA	0.882	0.851	1.05	0.879	0.806	0.766	0.631	0.76	0.7	0.675	1.02	1.02	1.08	1.09	0.687	1.08	1.1	1.11	1.19	1.17
COR-L 105	0.927	1.17	0.994	0.718	0.853	0.394	0.341	0.454	0.461	0.333	0.789	0.634	0.853	0.444	0.625	0.765	0.907	0.778	0.753	0.665
EMC-BAC-2	1.06	0.951	1.03	0.819	0.824	0.945	0.786	0.974	0.901	0.713	0.801	0.782	0.85	0.68	0.445	1.08	1.03	1.05	1.11	1.05
NCI-H1666	0.844	0.93	1.01	0.856	0.892	0.584	0.629	0.738	0.844	0.656	1.03	0.974	0.986	0.878	0.909	0.755	0.765	0.906	0.722	0.956
H3255	0.747	0.91	0.968	0.95	0.836		0.236	0.249	0.28	0.226		0.752	1.12	0.806	0.849	0.855	0.632	0.596	0.762	0.753
NCI-H1755	0.946	0.892	0.91	0.852	0.755	1.05	1.02	1.04	0.977	0.722	0.87	0.897	0.887	0.784	0.476	0.903	0.947	1.05	0.966	1.01
